Key:
[1] = Antioxidant activity assessed as DMPD scavenging activity after 15 mins by spectrophotometry; type: physicochemical
[2] = Antioxidant activity assessed as ABTS scavenging activity after 6 mins by spectrophotometry; type: physicochemical
[3] = Antioxidant activity assessed as DPPH scavenging activity after 30 mins by spectrophotometry; type: physicochemical
[4] = Antiinflammatory activity in human erythrocytes assessed as inhibition of hypotonic solution-induced hemolysis after 10 mins by spectrophotometry; type: functional, cell-based; conditions: erythrocyte

## COc1cc(/C=N/NC(=O)CCCc2nc3ccccc3c(=O)[nH]2)ccc1O
[1]
  IC50: 280 uM/ml
[2]
  IC50: 115 uM/ml
[3]
  IC50: 236 uM/ml

## COc1ccc(/C=N/NC(=O)CCCc2nc3ccccc3c(=O)[nH]2)cc1
[1]
  IC50: 280 uM/ml
[2]
  IC50: 180 uM/ml
[3]
  IC50: 247 uM/ml

## O=C(CCc1nc2ccccc2c(=O)[nH]1)N/N=C/c1ccc(O)c(O)c1
[1]
  IC50: 105 uM/ml
[2]
  IC50: 40 uM/ml
[4]
  IC50: 255 uM/ml
[3]
  IC50: 113 uM/ml

## O=C1O[C@H]([C@@H](O)CO)C(O)=C1O [ASCORBIC ACID]
[1]
  IC50: 140 uM/ml
[2]
  IC50: 65 uM/ml

## COc1cc(/C=N/NC(=O)CCCc2nc3ccccc3c(=O)[nH]2)cc(OC)c1O
[1]
  IC50: 225 uM/ml
[2]
  IC50: 135 uM/ml
[4]
  IC50: 524 uM/ml
[3]
  IC50: 97 uM/ml

## O=C(O)CCc1nc(O)c2ccccc2n1
[3]
  IC50: 1100 uM/ml

## O=C(O)c1cc(O)c(O)c(O)c1 [GALLIC ACID]
[1]
  IC50: 100 uM/ml
[2]
  IC50: 60 uM/ml

## COc1cc(/C=N/NC(=O)CCc2nc3ccccc3c(=O)[nH]2)cc(O)c1O
[1]
  IC50: 50 uM/ml
[2]
  IC50: 40 uM/ml
[4]
  IC50: 261 uM/ml
[3]
  IC50: 104 uM/ml

## O=C(CCCc1nc2ccccc2c(=O)[nH]1)N/N=C/c1ccc(O)cc1
[2]
  IC50: 170 uM/ml
[3]
  IC50: 214 uM/ml

## CC(=O)Oc1ccccc1C(=O)O [ASPIRIN]
[4]
  IC50: 166 uM/ml

## O=C(CCc1nc2ccccc2c(=O)[nH]1)N/N=C/c1ccc(O)cc1
[1]
  IC50: 300 uM/ml
[2]
  IC50: 105 uM/ml
[3]
  IC50: 238 uM/ml

## COc1cc(/C=N/NC(=O)CCCc2nc3ccccc3c(=O)[nH]2)cc(O)c1O
[1]
  IC50: 80 uM/ml
[2]
  IC50: 50 uM/ml
[4]
  IC50: 277 uM/ml
[3]
  IC50: 88 uM/ml

## COc1cc(/C=N/NC(=O)CCc2nc3ccccc3c(=O)[nH]2)ccc1O
[1]
  IC50: 290 uM/ml
[2]
  IC50: 95 uM/ml
[3]
  IC50: 204 uM/ml

## COc1cc(/C=N/NC(=O)CCc2nc3ccccc3c(=O)[nH]2)cc(OC)c1OC
[1]
  IC50: 80 uM/ml
[2]
  IC50: 55 uM/ml
[4]
  IC50: 682 uM/ml
[3]
  IC50: 85 uM/ml

## O=C(CCCc1nc2ccccc2c(=O)[nH]1)N/N=C/c1ccc(Cl)cc1
[4]
  IC50: 67 uM/ml
[3]
  IC50: 353 uM/ml

## O=C(CCc1nc2ccccc2c(=O)[nH]1)N/N=C/c1ccc([N+](=O)[O-])cc1
[2]
  IC50: 220 uM/ml
[4]
  IC50: 54 uM/ml
[3]
  IC50: 328 uM/ml

## O=C(CCc1nc2ccccc2c(=O)[nH]1)N/N=C/c1cc(O)c(O)c(O)c1
[1]
  IC50: 45 uM/ml
[2]
  IC50: 35 uM/ml
[4]
  IC50: 203 uM/ml
[3]
  IC50: 81 uM/ml

## O=C(CCCc1nc2ccccc2c(=O)[nH]1)N/N=C/c1ccc(O)c(O)c1
[1]
  IC50: 75 uM/ml
[2]
  IC50: 50 uM/ml
[4]
  IC50: 300 uM/ml
[3]
  IC50: 95 uM/ml

## O=C(CCCc1nc2ccccc2c(=O)[nH]1)N/N=C/c1cc(O)c(O)c(O)c1
[1]
  IC50: 45 uM/ml
[2]
  IC50: 40 uM/ml
[4]
  IC50: 183 uM/ml
[3]
  IC50: 78 uM/ml

## COc1cc(/C=N/NC(=O)CCCc2nc3ccccc3c(=O)[nH]2)cc(OC)c1OC
[1]
  IC50: 85 uM/ml
[2]
  IC50: 60 uM/ml
[4]
  IC50: 613 uM/ml
[3]
  IC50: 106 uM/ml

## O=C(O)CCCc1nc2ccccc2c(=O)[nH]1
[3]
  IC50: 1250 uM/ml

## COc1cc(/C=N/NC(=O)CCc2nc3ccccc3c(=O)[nH]2)cc(OC)c1O
[1]
  IC50: 275 uM/ml
[2]
  IC50: 105 uM/ml
[4]
  IC50: 530 uM/ml
[3]
  IC50: 126 uM/ml

## O=C(CCc1nc2ccccc2c(=O)[nH]1)N/N=C/c1ccc(Cl)cc1
[2]
  IC50: 185 uM/ml
[4]
  IC50: 84 uM/ml
[3]
  IC50: 381 uM/ml

## COC(=O)CCc1nc2ccccc2c(=O)[nH]1.Cl
[4]
  IC50: 1163 uM/ml
[3]
  IC50: 862 uM/ml

## COC(=O)CCCc1nc2ccccc2c(=O)[nH]1.Cl
[2]
  IC50: 280 uM/ml
[4]
  IC50: 975 uM/ml
[3]
  IC50: 772 uM/ml

## COc1ccc(/C=N/NC(=O)CCc2nc3ccccc3c(=O)[nH]2)cc1
[2]
  IC50: 75 uM/ml
[3]
  IC50: 214 uM/ml

## O=C(CCCc1nc2ccccc2c(=O)[nH]1)N/N=C/c1ccc([N+](=O)[O-])cc1
[2]
  IC50: 270 uM/ml
[4]
  IC50: 52 uM/ml
[3]
  IC50: 316 uM/ml

## Cc1cc(C(C)(C)C)c(O)c(C(C)(C)C)c1 [BUTYLATED HYDROXYTOLUENE]
[3]
  IC50: 114 uM/ml

## O=C(CCc1nc2ccccc2c(=O)[nH]1)N/N=C/c1ccccc1
[2]
  IC50: 265 uM/ml
[3]
  IC50: 734 uM/ml

## O=C(CCCc1nc2ccccc2c(=O)[nH]1)N/N=C/c1ccccc1
[2]
  IC50: 240 uM/ml
[3]
  IC50: 568 uM/ml
